Test results: PubChem BioAssay (NCI)
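Assay format: 96-well plates, 48-hour exposure. GI50: concentration for 50% inhibition of growth. TGI: total growth inhibition.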

Assays:
Assay in all cases: NCI anticancer screen, dose series, 48 h
COLO 205 colon = test system: COLO 205 colon
EKVX NSCLC = test system: EKVX NSCLC
HL-60(TB) leukemia = test system: HL-60(TB) leukemia
M14 melanoma = test system: M14 melanoma
NCI-H23 lung = test system: NCI-H23 lung
OVCAR-3 ovarian = test system: OVCAR-3 ovarian
OVCAR-8 ovarian = test system: OVCAR-8 ovarian
RPMI-8226 leukemia = test system: RPMI-8226 leukemia
SK-MEL-2 melanoma = test system: SK-MEL-2 melanoma
SK-OV-3 ovarian = test system: SK-OV-3 ovarian

| SMILES | GI50 (COLO 205 colon) | TGI (COLO 205 colon) | GI50 (EKVX NSCLC) | TGI (EKVX NSCLC) | GI50 (HL-60(TB) leukemia) | TGI (HL-60(TB) leukemia) | GI50 (M14 melanoma) | TGI (M14 melanoma) | GI50 (NCI-H23 lung) | TGI (NCI-H23 lung) | GI50 (OVCAR-3 ovarian) | TGI (OVCAR-3 ovarian) | GI50 (OVCAR-8 ovarian) | TGI (OVCAR-8 ovarian) | GI50 (RPMI-8226 leukemia) | TGI (RPMI-8226 leukemia) | GI50 (SK-MEL-2 melanoma) | TGI (SK-MEL-2 melanoma) | GI50 (SK-OV-3 ovarian) | TGI (SK-OV-3 ovarian) |
| --- | --- | --- | --- | --- | --- | --- | --- | --- | --- | --- | --- | --- | --- | --- | --- | --- | --- | --- | --- | --- |
| O=C(NCCO)Nc1ccc(-c2nc(N3CCOCC3)c3cccn3n2)cc1 | 117 nM | 9.08 µM | 183 nM | 8.47 µM | 2210 nM | > 100 µM | 189 nM | > 65.5 µM | 239 nM | > 100 µM | 170 nM | 9.82 µM | 257 nM | 21.1 µM | 405 nM | > 54.6 µM | 256 nM | 5.09 µM | 60.2 nM | 0.291 µM |
| CCN(CC)c1ccc(C(=O)c2ccccc2C(=O)O)c(O)c1 |  | > 100 µM |  | > 100 µM |  | > 100 µM |  | > 100 µM |  | > 100 µM |  | > 100 µM |  | > 100 µM |  | > 100 µM |  | > 100 µM |  | > 100 µM |
| COc1cc(C(=O)C/C(CCCC(=O)Nc2ccccc2[N+](=O)[O-])=N/NC(=O)c2cc3ccccc3cc2O)ccc1O |  | 63.2 µM |  | > 84.7 µM |  | 51.3 µM |  | 50.2 µM |  | > 100 µM |  | > 100 µM |  | > 100 µM |  | > 100 µM |  | > 100 µM |  | 95.7 µM |
| Cc1ccc(N=Cc2ccc3c(c2)OCO3)cc1C |  | > 100 µM |  | > 100 µM |  | > 100 µM |  | > 100 µM |  | > 100 µM |  | > 100 µM |  | > 100 µM |  | > 100 µM |  | > 100 µM |  | > 100 µM |
